Experimental findings from PMC12254070, “Antimicrobial Peptides Design Using Deep Learning and Rational Modifications: Activity in Bacteria, Candida albicans, and Cancer Cells” (Current Microbiology, 2025) are described below.

The test system of one series is C. albicans ATCC 10231. It counts as cell-based, Candida albicans. Particulars: ATCC 10231, 24 h. The method, then:
(§1) The antimicrobial activity of the peptides was evaluated with S. aureus ATCC 25923, P. aeruginosa ATCC 27853, Escherichia coli ATCC 25922, Klebsiella quasipneumoniae ATCC 700603, and the yeast C. albicans ATCC 10231. The minimum inhibitory concentration (MIC) was determined following the protocol described by Wiegand et al.. Briefly, bacteria were grown overnight in Mueller–Hinton (MH) medium at 37 °C and 90 rpm, while C. albicans was grown at 30 °C in MH supplemented with 30% YPD (yeast extract, peptone, dextrose). The concentration of bacteria and C. albicans was adjusted to 10^6 CFU/mL. […] Microorganism growth was measured hourly at 600 nm for 24 h, with a 10-s shaking cycle, on a Multiskan Go microplate reader (Thermo Scientific). The experiments with bacteria were incubated at 37 °C, whereas those with C. albicans were incubated at 30 °C. Each peptide was evaluated by duplicate on 2 different days. The MIC was estimated as the minimum peptide concentration at which the microorganism had no growth. […] In all assays, untreated culture medium without peptides was included as a negative control to account for basal microbial growth. All assays were performed in two independent experiments, each conducted with two technical replicates (n = 4 per condition).

Series [1] deals with Escherichia coli ATCC 25922. The format is cell-based. Particulars: ATCC 25922, 24 h. The method, then:
as §1

Series [2] has as its system Klebsiella quasipneumoniae ATCC 700603. It counts as cell-based. Particulars: ATCC 700603, 24 h. The method, then:
as §1

Another series has as its system S. aureus ATCC 25923. The format is cell-based, Staphylococcus aureus. Particulars: ATCC 25923, 24 h. As for the experimental part:
as §1

The subject of another series is P. aeruginosa ATCC 27853. It counts as cell-based, Pseudomonas aeruginosa. Particulars: ATCC 27853, 24 h. As for the experimental part: as §1
Series [3] has as its system human breast adenocarcinoma (MCF-7) cells. The format is cell-based. Particulars: 24 h. The method, then:
(§2) The methodology proposed by Zhang et al. […] After 24 h of incubation, the wells were washed twice with PBS, and 10 μL of MTT solution was added to each well at a final concentration of 0.5 mg/mL, and the cell cultures were incubated for 4 h at 37 °C. The solution was removed from each well, and the formazan crystals were dissolved with 100 μL of Sodium Dodecyl Sulfate (0.01 M). After 16 h, absorbance was measured with a MultiSkan Go microplate reader at 570 nm. The untreated wells were used as a negative control, while wells treated with DMSO were used as a positive control for cytotoxicity. The percent viability was determined using the following equation. %viability=[…]-×100% where ABSM is the average absorbance with the treatment and ABSC is the absorbance obtained in the controls (positive and negative).

The test system of series [4] is human lung adenocarcinoma (A549) cells. It counts as cell-based. Particulars: 24 h. The method, then:
as §2

In another series the test system is human red blood cells. Particulars: red cells of human, 3 h.

Ends that are not written are not given here.

By IC50 is commonly meant the concentration at which inhibition is half-maximal. A higher IC50 goes with weaker potency.

Consider LAKRWLKLLGKLAK [OrP1M], for which, in the series on C. albicans ATCC 10231, the IC50 came out at 10.1 µM and the “MFC C.a” value amounted to 31.6 µM. In series [1], this sequence displayed an IC50 of 1.5 µM and an MBC E.c of 1.9 µM. In series [2], this sequence returned an IC50 of 4.5 µM, an MBC K.q of 15.8 µM and an MIC K.q of 15.8 µM. Further, in the series on S. aureus ATCC 25923, the IC50 was 2.3 µM, the MBC S.a worked out at 3.9 µM and the MIC S.a is 3.9 µM. Further, in the series with P. aeruginosa ATCC 27853, the IC50 turned out to be 10.1 µM, the MBC P.a came to 3.9 µM and the MIC P.a turned out to be 3.9 µM. Moreover, the IC50 in series [3] was less than 6.25 µM. The same sequence displayed an IC50 in series [4] of 21.1 µM.
Turning to FKKLLKFLKWLF [VeP1], in the series with C. albicans ATCC 10231, the 50% inhibitory concentration (IC50) was found to be 31.7 µM and the “MFC C.a” value is recorded as greater than 113.1 µM. For the same sequence, in series [1], 5.8 µM corresponded to half-maximal inhibition (IC50) and the “MBC E.c” value was 14.1 µM. In series [2], this sequence yielded an IC50 of 5.9 µM, an MBC K.q of 28.3 µM and an MIC K.q of 28.3 µM. Moreover, in the series with S. aureus ATCC 25923, it took 2.1 µM to reach half-maximal inhibition (IC50) and the “MBC S.a” value is on record as 3.5 µM. In the series on P. aeruginosa ATCC 27853, this sequence gave an IC50 of 31.7 µM, an MBC P.a of 56.6 µM and an MIC P.a of 56.6 µM. Moreover, the “MHC (minimum hemolytic concentration)” value in the series with human red blood cells amounted to 4.25 µM.
For the sequence LKRLAKLLKKWIKA [OrP4M], in the series with C. albicans ATCC 10231, the IC50 is 9.4 µM and the “MFC C.a” value amounted to 28.2 µM. In series [1], this sequence had an IC50 of 2.2 µM, an MBC E.c of 3.5 µM and an MIC E.c of 3.5 µM. In series [2], the IC50 stood at 3.3 µM, the “MBC K.q” value worked out at 14.1 µM and the “MIC K.q” value is reported as 7.1 µM. Moreover, in the series with S. aureus ATCC 25923, the IC50 is 3.4 µM, the “MBC S.a” value came out at 14.1 µM and the “MIC S.a” value was determined as 7.1 µM. In the series on P. aeruginosa ATCC 27853, the IC50 turned out to be 9.4 µM, the MBC P.a came out at 3.5 µM and the MIC P.a turned out to be 3.5 µM. The IC50 in series [3] was less than 6.25 µM. Further, the “MHC (minimum hemolytic concentration)” value in the series on human red blood cells was found to be 59.91 µM.
For the sequence AGLKKLAKKLGKVVL [OrP3], in the series with C. albicans ATCC 10231, the IC50 stood at 9.6 µM and the “MFC C.a” value was found to be 27.8 µM. Also, in series [1], the midpoint of inhibition, the IC50, lay at 1.6 µM; the MBC E.c came out at 3.5 µM; the MIC E.c came out at 3.5 µM. In addition, in series [2], 6 µM corresponded to half-maximal inhibition (IC50), the “MBC K.q” value worked out at 27.8 µM and the “MIC K.q” value was 13.9 µM. In the series with S. aureus ATCC 25923, this sequence had an IC50 of 10.1 µM, an MBC S.a of 27.8 µM and an MIC S.a of 27.8 µM. In the series with P. aeruginosa ATCC 27853, this sequence returned an IC50 of 9.6 µM, an MBC P.a of 13.9 µM and an MIC P.a of 13.9 µM. The same sequence gave an IC50 in series [3] of 23.2 µM. In series [4], this sequence returned an IC50 of 33.1 µM. Further, in the series on human red blood cells, the “% Hemolysis at 50 µM” value was 0.0%.
Regarding AKLLGKLLRKKIGVL [OrP4], in the series with C. albicans ATCC 10231, the IC50 was 23.3 µM and the “MFC C.a” value is listed as 125.3 µM. In addition, in series [1], the IC50 amounted to 14.8 µM, the “MBC E.c” value is reported as 62.6 µM and the “MIC E.c” value is given as 31.3 µM. For the same sequence, in series [2], the IC50 stood at 29 µM and the “MBC K.q” value is given as > 125.2 (> 125.2) µM. Besides, in the series on S. aureus ATCC 25923, the “MBC S.a” value was > 125.2 (> 125.2) µM and the “MIC S.a” value is > 125.2 (> 125.2) µM. In the series on P. aeruginosa ATCC 27853, the midpoint of inhibition, the IC50, lay at 23.3 µM; the “MBC P.a” value is reported as 31.3 µM; the “MIC P.a” value is on record as 15.7 µM. This sequence also yielded an IC50 in series [3] greater than 100 µM. The “MHC (minimum hemolytic concentration)” value with human red blood cells was found to be 28.98 µM.
In the case of AIVKKIGKIWKNFIK [VeP2M], in the series with C. albicans ATCC 10231, the IC50 is 5.9 µM and the “MFC C.a” value amounted to 31.3 µM. In series [1], this sequence showed an IC50 of 1.6 µM, an MBC E.c of 3.9 µM and an MIC E.c of 3.9 µM. Further, in series [2], the IC50 was determined as 9.2 µM, the “MBC K.q” value was determined as 62.6 µM and the “MIC K.q” value was determined as 31.3 µM. Moreover, in the series with S. aureus ATCC 25923, the IC50 is 7.9 µM, the “MBC S.a” value was 31.3 µM and the “MIC S.a” value was 15.6 µM. In addition, in the series on P. aeruginosa ATCC 27853, half-maximal inhibition (IC50) was put at 5.9 µM, the “MBC P.a” value came out at 15.6 µM and the “MIC P.a” value worked out at 7.8 µM. The sequence also yielded a half-maximal inhibitory concentration (IC50) in series [3] of 21.9 µM. In series [4], half-maximal inhibition (IC50) required 34.9 µM. In the series on human red blood cells, the “MHC (minimum hemolytic concentration)” value was 68.64 µM and the “% Hemolysis at 50 µM” value was 7.1%.
Turning to IGKVWKVAKKLIKI [OrP9M], in the series on C. albicans ATCC 10231, the IC50 was 4.9 µM. Besides, in series [1], inhibition was half-maximal at 3.2 µM (IC50), the MBC E.c is 7.8 µM and the MIC E.c stood at 7.8 µM. In series [2], this sequence yielded an IC50 of 3.8 µM, an MBC K.q of 15.6 µM and an MIC K.q of 15.6 µM. Besides, in the series with S. aureus ATCC 25923, it took 4.5 µM to reach half-maximal inhibition (IC50), the “MBC S.a” value was found to be 31.1 µM and the “MIC S.a” value is listed as 15.6 µM. In addition, in the series with P. aeruginosa ATCC 27853, the half-inhibitory concentration (IC50) stood at 4.9 µM and the MBC P.a is 1.9 µM. Further, the IC50 in series [3] was less than 6.25 µM. Besides, half-maximal inhibition in series [4] (IC50) was put at 25.1 µM.
As to AGLARKWLKLPIGVLAR [OrP1], in the series on C. albicans ATCC 10231, the IC50 came to 14.8 µM and the “MFC C.a” value was 49.7 µM. In series [1], this sequence registered an IC50 of 5.8 µM, an MBC E.c of 12.4 µM and an MIC E.c of 12.4 µM. In series [2], the IC50 was found to be 22.4 µM, the “MBC K.q” value is reported as greater than 99.3 µM and the “MIC K.q” value came to 49.7 µM. In the series with S. aureus ATCC 25923, the IC50 was 24.2 µM, the “MBC S.a” value was > 99.3 (> 99.3) µM and the “MIC S.a” value is on record as > 99.3 (> 99.3) µM. Further, in the series with P. aeruginosa ATCC 27853, the IC50 stood at 14.8 µM, the “MBC P.a” value worked out at 99.3 µM and the “MIC P.a” value was found to be 49.7 µM. This sequence had an IC50 in series [3] of 9.1 µM. The same sequence gave an IC50 in series [4] of 21.7 µM. The “% Hemolysis at 50 µM” value in the series with human red blood cells is reported as 1.2%.
Regarding FKLFCVAKRLPKKVL [OrP9], in the series on C. albicans ATCC 10231, the IC50 came out at 44.1 µM and the “MFC C.a” value is recorded as > 119.2 (> 119.2) µM. In series [1], this sequence had an IC50 of 4.9 µM, an MBC E.c of 7.5 µM and an MIC E.c of 7.5 µM. Moreover, in series [2], 93 µM corresponded to half-maximal inhibition (IC50), the “MBC K.q” value is on record as > 119.2 (> 119.2) µM and the “MIC K.q” value is listed as > 119.2 (> 119.2) µM. In addition, in the series on S. aureus ATCC 25923, the “MBC S.a” value is > 119.2 (> 119.2) µM and the “MIC S.a” value is reported as > 119.2 (> 119.2) µM. In addition, in the series with P. aeruginosa ATCC 27853, the IC50 worked out at 44.1 µM, the “MBC P.a” value is 29.8 µM and the “MIC P.a” value is reported as 14.9 µM. For the same sequence, in series [3], the IC50 is greater than 100 µM.
In the case of IKPVVKGIKGVKNFFK [VeP2], in the series with C. albicans ATCC 10231, the IC50 came to 23.7 µM and the “MFC C.a” value is on record as greater than 102.9 µM. In series [1], the IC50 stood at 22.8 µM, the MBC E.c came to 103 µM and the MIC E.c was determined as 103 µM. In series [2], this sequence had an IC50 of 30.7 µM, an MBC K.q greater than 103 µM and an MIC K.q of 103 µM. In the series on S. aureus ATCC 25923, the IC50 amounted to 53.2 µM, the “MBC S.a” value is greater than 102.9 µM and the “MIC S.a” value was 51.5 µM. In the series on P. aeruginosa ATCC 27853, the IC50 is 21.9 µM, the “MBC P.a” value is listed as 102.9 µM and the “MIC P.a” value was found to be 51.5 µM. In series [3], this sequence had an IC50 of 34.2 µM. Also, in series [4], it took 69.6 µM to reach half-maximal inhibition (IC50). The “% Hemolysis at 50 µM” value in the series on human red blood cells worked out at 3.0%.
